Measurements: patent US8242275B2, “Bicyclic pyrazole compounds as antibacterial agents” (Janssen Pharmaceutica NV, priority 2005, dated 2012)
Values after ≈ are worked out from the molar mass of the structure shown.

What was measured:
Assay in all cases: In vitro antibacterial activity (MIC assay), broth microdilution
Type in all cases: cell-based
[1] = test system: S. pneumoniae ATCC49619; conditions: Streptococcus pneumoniae, ATCC49619; read-out: S. pneumoniae ATCC49619 MIC
Protocol: (§1) Minimal inhibitory concentration (MIC) has been an indicator of in vitro antibacterial activity widely used in the art. The in vitro antibacterial activity of the compounds was determined by the broth microdilution method described by the National Committee for Clinical Laboratory Standards (NCCLS) in the NCCLS Document M7-A5, Vol. 20, No. 2, “Methods for Dilution Antimicrobial Susceptibility Test for Bacteria that Grow Aerobically—Fifth Edition”, which is incorporated herein by reference.
(§2) In this method, an aliquot of test compound from an 11-point series of 2-fold serial dilutions of compounds in 100% DMSO was added to wells in microdilution plates. The test organisms were prepared by adjusting the turbidity of actively growing broth cultures so that the final concentration of test organism after addition to wells with or without compounds was approximately 5×10^5 CFU/mL.
(§3) Following inoculation of the microdilution plates, the plates were incubated at 35° C. for 16-24 h and then scored for bacterial growth. […] The amount of growth in the wells containing the test compound was compared with the amount of growth in the growth-control wells (no test compound used) in each plate, and with the amount of growth in the wells containing control compounds (such as ciprofloxacin). Compounds of the present invention were tested against several bacterial strains. The MIC values (in μg/mL) are presented in Table 1 for Gram-negative (E. coli KL-16 (GSC strain 4245); data marked as (*) was obtained with E. coli ATCC25922) and Gram-positive bacteria (S. aureus ATCC13709; S. pneumoniae ATCC49619).

[2] = test system: S. aureus ATCC13709; conditions: Staphylococcus aureus, ATCC13709; read-out: S. aureus ATCC13709 MIC
Protocol: as §1, §2, §3

[3] = test system: E. coli KL-16 (GSC strain 4245); conditions: Escherichia coli
Protocol: as §1, §2, §3

SMILES | MIC [1] [µg/mL] | MIC [2] [µg/mL] | MIC [3] [µg/mL]
COc1ccc2nccc(-n3cc4c(n3)CCC(NCC(=O)Nc3cccc(C(F)(F)F)c3)C4)c2n1 (stereo not drawn) [Example 122, 2-[2-(6-Methoxy-[1,5]naphthyridin-4-yl)-4,5,6,7-tetrahydro-2H-indazol-5-ylamino]-N-(3-trifluoromethyl-phenyl)-acetamide] | 32 (≈ 64.5 µM) | 2 (≈ 4.03 µM) | > 128
COc1ccc2nccc(-n3cc4c(n3)CCC(NC(=O)c3cc5cc(Br)ccc5[nH]3)C4)c2c1 (stereo not drawn) [Example 76, 5-Bromo-1H-indole-2-carboxylic acid [2-(6-methoxy-quinolin-4-yl)-4,5,6,7-tetrahydro-2H-indazol-5-yl]-amide] | > 128 | 2 (≈ 3.87 µM) | > 128
COc1ccc2nccc(-n3cc4c(n3)CCC(NC(=O)c3cc(NC(C)=O)ccc3Br)C4)c2n1 (stereo not drawn) [Example 124, 5-Acetylamino-2-bromo-N-[2-(6-methoxy-[1,5]naphthyridin-4-yl)-4,5,6,7-tetrahydro-2H-indazol-5-yl]-benzamide] | > 128 | 4 (≈ 7.47 µM) | > 128
COc1ccc2nccc(-n3cc4c(n3)CC(NC(=O)c3ccc5c(c3)NC(=O)CS5)CC4)c2c1 (stereo not drawn) [Example 27, 3-Oxo-3,4-dihydro-2H-benzo[1,4]thiazine-6-carboxylic acid [2-(6-methoxy-quinolin-4-yl)-4,5,6,7-tetrahydro-2H-indazol-6-yl]-amide] | 4 (≈ 8.24 µM) | 0.125 (≈ 0.257 µM) | 4 (≈ 8.24 µM)
COc1ccc2nccc(-n3cc4c(n3)CCC(NC(=O)c3ccc5c(c3)OCCO5)C4)c2c1 (stereo not drawn) [Example 16, 2,3-Dihydro-benzo[1,4]dioxine-6-carboxylic acid [2-(6-methoxy-quinolin-4-yl)-4,5,6,7-tetrahydro-2H-indazol-5-yl]-amide] | 8 (≈ 17.5 µM) | 2 (≈ 4.38 µM) | > 128
COc1ccc2nccc(-n3cc4c(n3)CCC(NC(=O)c3cc(F)c(Cl)cc3Cl)C4)c2n1 (stereo not drawn) [Example 125, 2,4-Dichloro-5-fluoro-N-[2-(6-methoxy-[1,5]naphthyridin-4-yl)-4,5,6,7-tetrahydro-2H-indazol-5-yl]-benzamide] | 8 (≈ 16.4 µM) | 0.25 (≈ 0.514 µM) | > 128
COc1ccc2nccc(-n3ncc4c3CCC(NC(=O)c3cc5c(cc3C(F)(F)F)SCC(=O)N5)C4)c2c1 (stereo not drawn) [Example 99, 3-Oxo-7-trifluoromethyl-3,4-dihydro-2H-benzo[1,4]thiazine-6-carboxylic acid [1-(6-methoxy-quinolin-4-yl)-4,5,6,7-tetrahydro-1H-indazol-5-yl]-amide] | > 128 | 2 (≈ 3.61 µM) | > 128
COc1ccc2nccc(-n3cc4c(n3)CCC(NC(=O)/C=C/c3ccccc3)C4)c2n1 (stereo not drawn) [Example 10, N-[2-(6-Methoxy-[1,5]naphthyridin-4-yl)-4,5,6,7-tetrahydro-2H-indazol-5-yl]-3-phenyl-acrylamide] | 2 (≈ 4.7 µM) | 0.25 (≈ 0.588 µM) | > 128
COc1ccc2nccc(-n3cc4c(n3)CCC(NC(=O)c3ccc(C)c([N+](=O)[O-])c3)C4)c2n1 (stereo not drawn) [Example 110, N-[2-(6-Methoxy-[1,5]naphthyridin-4-yl)-4,5,6,7-tetrahydro-2H-indazol-5-yl]-4-methyl-3-nitro-benzamide] | 8 (≈ 17.4 µM) | 0.25 (≈ 0.545 µM) | > 128
COc1ccc2nccc(-n3cc4c(n3)CCC(NCc3ccc(N(C)C)cc3)C4)c2n1 (stereo not drawn) [Example 39, (4-Dimethylamino-benzyl)-[2-(6-methoxy-[1,5]naphthyridin-4-yl)-4,5,6,7-tetrahydro-2H-indazol-5-yl]-amine] | 1 (≈ 2.33 µM) | 0.5 (≈ 1.17 µM) | > 128
COc1ccc2nccc(-n3cc4c(n3)CCC(NC(=O)/C=C/c3cccs3)C4)c2c1 (stereo not drawn) [Example 30, N-[2-(6-Methoxy-quinolin-4-yl)-4,5,6,7-tetrahydro-2H-indazol-5-yl]-3-thiophen-2-yl-acrylamide] | 8 (≈ 18.6 µM) | 1 (≈ 2.32 µM) | > 128
COc1ccc2nccc(-n3cc4c(n3)CCC(NCc3cc(OC)c(OC)cc3F)C4)c2n1 (stereo not drawn) [Example 88, (2-Fluoro-4,5-dimethoxy-benzyl)-[2-(6-methoxy-[1,5]naphthyridin-4-yl)-4,5,6,7-tetrahydro-2H-indazol-5-yl]-amine] | 8 (≈ 17.3 µM) | 4 (≈ 8.63 µM) | > 128
COc1ccc2nccc(-n3cc4c(n3)CCC(NCc3cc5c(cc3F)OCCO5)C4)c2c1 (stereo not drawn) [Example 51, (7-Fluoro-2,3-dihydro-benzo[1,4]dioxin-6-ylmethyl)-[2-(6-methoxy-quinolin-4-yl)-4,5,6,7-tetrahydro-2H-indazol-5-yl]-amine] | 1 (≈ 2.17 µM) | 1 (≈ 2.17 µM) | > 128
Cc1cc(-n2cc3c(n2)CCC(NC(=O)c2ccc4c(c2)NC(=O)CS4)C3)c2cc(F)ccc2n1 (stereo not drawn) [Example 82, 3-Oxo-3,4-dihydro-2H-benzo[1,4]thiazine-6-carboxylic acid [2-(6-fluoro-2-methyl-quinolin-4-yl)-4,5,6,7-tetrahydro-2H-indazol-5-yl]-amide] | > 128 | 8 (≈ 16.4 µM) | > 128
COc1ccc2nccc(-n3cc4c(n3)CCC(NC(=O)/C=C/c3cc([N+](=O)[O-])ccc3Cl)C4)c2n1 (stereo not drawn) [Example 94, 3-(2-Chloro-5-nitro-phenyl)-N-[2-(6-methoxy-[1,5]naphthyridin-4-yl)-4,5,6,7-tetrahydro-2H-indazol-5-yl]-acrylamide] | > 128 | 2 (≈ 3.96 µM) | > 128
COc1ccc2nccc(-n3cc4c(n3)CCC(NC(=O)/C=C/c3ccccc3)C4)c2c1 (stereo not drawn) [Example 29, N-[2-(6-Methoxy-quinolin-4-yl)-4,5,6,7-tetrahydro-2H-indazol-5-yl]-3-phenyl-acrylamide] | 4 (≈ 9.42 µM) | 1 (≈ 2.36 µM) | > 128
COc1ccc2nccc(-n3cc4c(n3)CCC(NC(=O)c3cc(F)c5c(c3)OCCO5)C4)c2n1 (stereo not drawn) [Example 127, 8-Fluoro-2,3-dihydro-benzo[1,4]dioxine-6-carboxylic acid [2-(6-methoxy-[1,5]naphthyridin-4-yl)-4,5,6,7-tetrahydro-2H-indazol-5-yl]-amide] | 8 (≈ 16.8 µM) | 0.5 (≈ 1.05 µM) | > 128
COc1ccc2nccc(-n3cc4c(n3)CCC(NC(=O)c3ccc5c(c3)OCCCO5)C4)c2n1 (stereo not drawn) [Example 3, 3,4-Dihydro-2H-benzo[b][1,4]dioxepine-7-carboxylic acid [2-(6-methoxy-[1,5]naphthyridin-4-yl)-4,5,6,7-tetrahydro-2H-indazol-5-yl]-amide] | 4 (≈ 8.48 µM) | 1 (≈ 2.12 µM) | > 128
COc1ccc2nccc(-n3cc4c(n3)CCC(NC(=O)c3ccc(OC)c([N+](=O)[O-])c3)C4)c2n1 (stereo not drawn) [Example 119, 4-Methoxy-N-[2-(6-methoxy-[1,5]naphthyridin-4-yl)-4,5,6,7-tetrahydro-2H-indazol-5-yl]-3-nitro-benzamide] | 8 (≈ 16.9 µM) | 4 (≈ 8.43 µM) | > 128
COc1ccc2nccc(-n3ncc4c3CCC(NC(=O)c3cc5c(cc3Br)SCC(=O)N5)C4)c2c1 (stereo not drawn) [Example 98, 7-Bromo-3-oxo-3,4-dihydro-2H-benzo[1,4]thiazine-6-carboxylic acid [1-(6-methoxy-quinolin-4-yl)-4,5,6,7-tetrahydro-1H-indazol-5-yl]-amide] | 64 (≈ 113 µM) | 16 (≈ 28.3 µM) | > 128
COc1ccc2nccc(-n3cc4c(n3)CCC(NCC(=O)NCc3ccccc3)C4)c2n1 (stereo not drawn) [Example 84, N-Benzyl-2-[2-(6-methoxy-[1,5]naphthyridin-4-yl)-4,5,6,7-tetrahydro-2H-indazol-5-ylamino]-acetamide] | 16 (≈ 36.2 µM) | 2 (≈ 4.52 µM) | > 128
COc1ccc2nccc(-n3cc4c(n3)CCC(NC(=O)c3cc(F)c5c(c3)OCCO5)C4)c2c1 (stereo not drawn) [Example 128, 8-Fluoro-2,3-dihydro-benzo[1,4]dioxine-6-carboxylic acid [2-(6-methoxy-quinolin-4-yl)-4,5,6,7-tetrahydro-2H-indazol-5-yl]-amide] | 8 (≈ 16.9 µM) | 2 (≈ 4.22 µM) | > 128
COc1ccc2nccc(-n3cc4c(n3)CCC(NC/C(C)=C/c3ccccc3)C4)c2c1 (stereo not drawn) [Example 56, [2-(6-Methoxy-quinolin-4-yl)-4,5,6,7-tetrahydro-2H-indazol-5-yl]-(2-methyl-3-phenyl-allyl)-amine] | 2 (≈ 4.71 µM) | 1 (≈ 2.36 µM) | 128 (≈ 301 µM)
COc1ccc2nccc(-n3cc4c(n3)CCC(NC(=O)c3cc5c(F)cccc5s3)C4)c2c1 (stereo not drawn) [Example 24, 4-Fluoro-benzo[b]thiophene-2-carboxylic acid [2-(6-methoxy-quinolin-4-yl)-4,5,6,7-tetrahydro-2H-indazol-5-yl]-amide] | 4 (≈ 8.46 µM) | < 0.125 | > 128
COc1ccc2nccc(-n3cc4c(n3)CCC(NCc3ccc(N(C)C)c(C#N)c3F)C4)c2c1 (stereo not drawn) [Example 126, 6-Dimethylamino-2-fluoro-3-{[2-(6-methoxy-quinolin-4-yl)-4,5,6,7-tetrahydro-2H-indazol-5-ylamino]-methyl}-benzonitrile] | 2 (≈ 4.25 µM) | 1 (≈ 2.13 µM) | > 128
